Assay results: patent EP3293246A1, “LUBRICANT COMPOSITIONS CONTAINING DIUREA COMPOUNDS” (BASF SE, priority 2016, dated 2018)

assay: Solubility 0.5% in base oil Yubase 4, visual inspection of appearance; assay type: physicochemical; settings: 0.5 g compound stirred with 99.5 g Yubase 4 at 100°C for 4 hours, cooled to room temperature
Description: For the determination of the solubilities, 0.5 g of the compound under test was stirred with 99.5 g of Yubase 4 at 100°C for 4 hours and subsequently cooled to room temperature. The appearance of the solution was assessed by visual inspection.

Structure (SMILES)	Solubility 0.5% in Yubase 4; visible appearance
Cc1ccc(NC(=O)NC(C)CCCC(C)C)cc1NC(=O)NC(C)CCCC(C)C (stereo not drawn) [Example 6]	no clear solution
CCCCCCCCC=CCCCCCCCCNC(=O)Nc1ccc(C)c(NC(=O)NCCCCCCCCC=CCCCCCCCC)c1 [Example 5]	no clear solution
CCCCC(CC)CNC(=O)Nc1ccc(C)c(NC(=O)NCC(CC)CCCC)c1 (stereo not drawn) [Example 1]	no clear solution
